Measured values: paper PMC11954145, “Antimicrobial and ADME properties of methoxylated, methylated and nitrated 2-hydroxynaphthalene-1 carboxanilides” (ADMET & DMPK, 2025)
In brackets after ≈: the same amount, converted by molar mass. Where two headings read alike, the source gives them in different places.

Experiments:
[1] = system: Mycobacterium kansasii DSM 44162; assay: Antimycobacterial screening, broth dilution MIC; type: cell-based; details: DSM44162, 336 h, read-out: MIC M. kansasii
[2] = system: Mycobacterium smegmatis ATCC 700084; assay: Antimycobacterial screening, broth dilution MIC; type: cell-based; details: Mycolicibacterium smegmatis, ATCC700084, 72 h; ATCC 700084, 3 days at 37 °C; read-out: MIC M. smegmatis
[3] = Lipophilicity determination by RP-HPLC (log k, log D); type: physicochemical; details: for log D6.5: RP-HPLC C18, MeOH 72 % / acetate-buffered saline pH 6.5; for log D7.4: RP-HPLC C18, MeOH 72 % / acetate-buffered saline pH 7.4; for log k (logarithm of the capacity factor): RP-HPLC C18, MeOH 72 % / water 28 %
Source text: An HPLC system Agilent 1200 equipped with a DAD detector (Agilent, Santa Clara, CA, USA) was used. A chromatographic column Symmetry® C18 5 μm, 4.6×250 mm, part No. WAT054275 (Waters Corp., Milford, MA, USA) was used. The HPLC separation process was monitored and evaluated with EZChrom Elite software ver. 3.3.2 (Agilent). Isocratic elution by a mixture of MeOH p.a. (72 %) and H2O-HPLC Mili-Q grade (28 %) as a mobile phase was used for the determination of capacity factor k. Isocratic elution by a mixture of MeOH p.a. (72 %) and acetate-buffered saline (pH 7.4 and pH 6.5) (28 %) as a mobile phase was used for the determination of distribution coefficients expressed as D7.4 and D6.5. The total flow of the column was 1.0 mL min^-1, the injection volume was 20 μL, the column temperature was 40 °C, and the sample temperature was 10 °C. The detection wavelength of 210 nm was chosen. A KI methanolic solution was used to determine the dead times (tD). Retention times (tR) were measured in minutes. The capacity factors k were calculated according to the formula k = (tR–tD)/tD, where tR is the retention time of the solute, and tD is the dead time obtained using an unretained analyte. The distribution coefficients DpH were calculated according to the formula DpH = (tR–tD)/tD. Each experiment was repeated three times.
The capacity factor and distribution coefficients were measured by RP-HPLC on a C18 column with methanol as an organic modifier of the mobile phase. In addition to the experimental lipophilicities, predicted log P values were also calculated using ACD/Percepta, see Table 1. […] The values of σ(Ar) are found in a wide range from 0.01 to 1.36, so the compounds contain substituents with both electron-donating and slightly electron-withdrawing properties.

E. coli ATCC 25922 = assay: Antibacterial screening, broth microdilution MIC; type: cell-based; details: Escherichia coli, ATCC25922; ATCC 25922, 24 h at 37 °C
VRE 342B = assay: Antibacterial screening, broth microdilution MIC; type: cell-based, vancomycin-resistant E. faecalis; details: Enterococcus, read-out: MIC VRE 342B
[4] = system: Enterococcus faecalis ATCC 29212; assay: Antibacterial screening, broth microdilution MIC; type: cell-based; details: read-out: MIC E. faecalis
MRSA SA 3202 = assay: Antibacterial screening, broth microdilution MIC; type: cell-based, methicillin-resistant S. aureus; details: Staphylococcus aureus, clinical isolate, 24 h at 37 °C, read-out: MIC MRSA SA 3202
[5] = system: Mycobacterium tuberculosis ATCC 25177/H37Ra; assay: Antimycobacterial screening, broth dilution MIC (Alamar blue); type: cell-based; details: 336 h, read-out: MIC M. tuberculosis
Procedure: The evaluation of in vitro antimycobacterial activity of the compounds was performed against Mycobacterium tuberculosis ATCC 25177/H37Ra, Mycobacterium kansasii DSM 44162 and Mycobacterium smegmatis ATCC 700084.
The broth dilution micro-method in Middlebrook 7H9 medium (Difco, Lawrence, KS, USA) supplemented with ADC Enrichment (Difco) was used to determine the minimum inhibitory concentration (MIC) as previously described. […] The final concentrations of the evaluated compounds, ranging from 256 to 0.125 μg mL^-1, were obtained by twofold serial dilution of the stock solution in a microtiter plate with a sterile medium. Bacterial inocula were prepared by transferring colonies from culture to sterile water. The plate was inoculated by tested microorganisms. The final concentration of bacterial cells was 1.5×10^6 for M. tuberculosis and 10^5 cells in a microtiter plate for other mycobacteria. Isoniazid and rifampicin (Sigma) were used as reference antimycobacterial drugs. Drug-free controls, sterility controls, and controls consisting of medium and DMSO alone were included. The plates were incubated for a defined time at an appropriate temperature (3 days at 37 °C for M. smegmatis, and 14 days at 37 °C for M. tuberculosis and M. kansasii). […] The MICs against M. tuberculosis were evaluated by Alamar blue (Oxoid). After incubation, 10 % of Alamar blue was added to each well, and the plate was incubated for 24 h. The MIC values were assessed as the lowest concentration of the tested compounds, which prevented changing blue resazurin to pink resorufin. The experiments were repeated three times. The minimum inhibitory concentrations (MICs) were defined as the lowest concentration of the compound at which no visible bacterial growth was observed. The MIC value is routinely and widely used in bacterial assays and is a standard detection limit according to the CLSI [60].

VRE 368 = assay: Antibacterial screening, broth microdilution MIC; type: cell-based, vancomycin-resistant E. faecalis; details: Enterococcus, read-out: MIC VRE 368
VRE 725B = assay: Antibacterial screening, broth microdilution MIC; type: cell-based, vancomycin-resistant E. faecalis; details: Enterococcus, read-out: MIC VRE 725B
MRSA SA 630 = assay: Antibacterial screening, broth microdilution MIC; type: cell-based, methicillin-resistant S. aureus; details: Staphylococcus aureus, clinical isolate, 24 h at 37 °C, read-out: MIC MRSA SA 630
MRSA 63718 = assay: Antibacterial screening, broth microdilution MIC; type: cell-based, methicillin-resistant S. aureus; details: Staphylococcus aureus, clinical isolate, 24 h at 37 °C, read-out: MIC MRSA 63718
S. aureus ATCC 29213 = assay: Antibacterial screening, broth microdilution MIC; type: cell-based; details: Staphylococcus aureus, ATCC29213; ATCC 29213, 24 h at 37 °C; read-out: MIC S. aureus
[6] = ATCC29212, ATCC 29212, 24 h at 37 °C
[7] = H37Ra, 14 days at 37 °C, Alamar blue

Row | Compound | MIC [2] | log D6.5 [3] | log D7.4 [3] | log k (logarithm of the capacity factor) [3] | MIC (E. coli ATCC 25922) | MIC (VRE 342B; vanA isolate, 24 h at 37 °C) | MIC [4, 6] | MIC (MRSA SA 3202) | MIC [5, 7] | MIC (VRE 368; vanA isolate, 24 h at 37 °C) | MIC (VRE 725B; vanA isolate, 24 h at 37 °C) | MIC (MRSA SA 630) | MIC (MRSA 63718) | MIC (S. aureus ATCC 29213) | MIC ([1]; DSM 44162, 14 days at 37 °C) | other results
1 | COc1ccc(C)cc1NC(=O)c1c(O)ccc2ccccc12 [Compound 15, 2-Hydroxy-N-(2-methoxy-5-methylphenyl)naphthalene-1-carboxamide] | 833 µM (≈ 256 µg/mL) | 0.4974 | 0.5012 | 0.4932 | 833 µM (≈ 256 µg/mL) | 833 µM (≈ 256 µg/mL) | 833 µM (≈ 256 µg/mL) | 833 µM (≈ 256 µg/mL) | 416 µM (≈ 128 µg/mL) | 833 µM (≈ 256 µg/mL) | 833 µM (≈ 256 µg/mL) | 833 µM (≈ 256 µg/mL) | 833 µM (≈ 256 µg/mL) | 833 µM (≈ 256 µg/mL) | – | MIC [1]: 833 µM (≈ 256 µg/mL)
2 | COc1cc(NC(=O)c2c(O)ccc3ccccc23)cc(OC)c1OC [Compound 7, 2-Hydroxy-N-(3,4,5-trimethoxyphenyl)naphthalene-1-carboxamide] | 210 µM (≈ 74.2 µg/mL) | -0.1053 | -0.0948 | -0.1150 | 838 µM (≈ 296 µg/mL) | 724 µM (≈ 256 µg/mL) | 724 µM (≈ 256 µg/mL) | 419 µM (≈ 148 µg/mL) | – | 724 µM (≈ 256 µg/mL) | 724 µM (≈ 256 µg/mL) | 838 µM (≈ 296 µg/mL) | 838 µM (≈ 296 µg/mL) | 838 µM (≈ 296 µg/mL) | 838 µM (≈ 296 µg/mL) | MIC [5]: 210 µM (≈ 74.2 µg/mL)
3 | CO[C@H]1/C=C/O[C@@]2(C)Oc3c(C)c(O)c4c(O)c(c(/C=N/N5CCN(C)CC5)c(O)c4c3C2=O)NC(=O)/C(C)=C\C=C\[C@H](C)[C@H](O)[C@@H](C)[C@@H](O)[C@@H](C)[C@H](OC(C)=O)[C@@H]1C [RIF, rifampicin, reference compound] | 19.4 µM (≈ 16 µg/mL) | – | – | – | – | – | – | – | 9.71 µM (≈ 7.99 µg/mL) | – | – | – | – | – | 0.15 µM (≈ 0.123 µg/mL) | –
4 | Cc1cccc(NC(=O)c2c(O)ccc3ccccc23)c1 [Compound 9, 2-hydroxy-N-(3--methylphenyl)naphthalene-1-carboxamide] | – | 0.1644 | 0.1727 | 0.1762 | 462 µM (≈ 128 µg/mL) | 462 µM (≈ 128 µg/mL) | 462 µM (≈ 128 µg/mL) | – | 231 µM (≈ 64.1 µg/mL) | 462 µM (≈ 128 µg/mL) | 462 µM (≈ 128 µg/mL) | – | 462 µM (≈ 128 µg/mL) | – | 115 µM (≈ 31.9 µg/mL) | –
5 | Cc1ccc(NC(=O)c2c(O)ccc3ccccc23)cc1 [Compound 10, 2-hydroxy-N-(4-methylphenyl)naphthalene-1-carboxamide] | > 923 µM | 0.1553 | 0.1632 | 0.1658 | 462 µM (≈ 128 µg/mL) | 462 µM (≈ 128 µg/mL) | 462 µM (≈ 128 µg/mL) | 462 µM (≈ 128 µg/mL) | 231 µM (≈ 64.1 µg/mL) | 462 µM (≈ 128 µg/mL) | 462 µM (≈ 128 µg/mL) | 462 µM (≈ 128 µg/mL) | 462 µM (≈ 128 µg/mL) | – | 115 µM (≈ 31.9 µg/mL) | –
6 | COc1ccccc1NC(=O)c1c(O)ccc2ccccc12 [Compound 2, 2-hydroxy-N-(2-methoxyphenyl)naphthalene-1-carboxamide] | – | 0.3015 | 0.3069 | 0.3181 | 873 µM (≈ 256 µg/mL) | – | – | – | > 873 µM | – | – | – | – | – | – | MIC [1]: > 873 µM; MIC (VRE 342B; 24 h): > 873 µM; MIC ([4]; ATCC29212, 24 h): > 873 µM; MIC (VRE 368; 24 h): > 873 µM; MIC (VRE 725B; 24 h): > 873 µM
7 | COc1cccc(NC(=O)c2c(O)ccc3ccccc23)c1 [Compound 3, 2-hydroxy-N-(3-methoxyphenyl)naphthalene-1-carboxamide] | – | 0.1643 | 0.1717 | 0.1751 | 873 µM (≈ 256 µg/mL) | > 873 µM | > 873 µM | – | 218 µM (≈ 63.9 µg/mL) | > 873 µM | > 873 µM | 873 µM (≈ 256 µg/mL) | 436 µM (≈ 128 µg/mL) | 436 µM (≈ 128 µg/mL) | 109 µM (≈ 32 µg/mL) | –
8 | NNC(=O)c1ccncc1 [INH, isoniazid, reference compound] | 117 µM (≈ 16 µg/mL) | – | – | – | – | – | – | – | 36.5 µM (≈ 5.01 µg/mL) | – | – | – | – | – | 233 µM (≈ 32 µg/mL) | –
9 | CC1(C)S[C@@H]2[C@H](NC(=O)[C@H](N)c3ccccc3)C(=O)N2[C@H]1C(=O)O [AMP, ampicillin, reference compound] | – | – | – | – | 45.8 µM (≈ 16 µg/mL) | – | 2.81 µM (≈ 0.982 µg/mL) | 45.8 µM (≈ 16 µg/mL) | – | – | – | 45.8 µM (≈ 16 µg/mL) | 45.8 µM (≈ 16 µg/mL) | 5.72 µM (≈ 2 µg/mL) | – | –
